The values that follow come from patent US20110034434A1, “PRODRUGS OF FUSED HETEROCYCLIC INHIBITORS OF D-AMINO ACID OXIDASE” (SEPRACOR INC., priority 2009, published 2011).

Structures are written as SMILES.

The test concerns D-serine. Nature of the test: PK-PD evaluation in rats: D-serine levels in cerebellum after oral dosing. The test is classed as in vivo. Particulars: rat cerebellum, 6 hours after PO dosing, dose normalized to 10 mg/kg of the acid; mean ± spread (n). On the procedure: Rats (Harlan male Sprague) (N=3) were dosed orally with an amount of test compound, suspended in 45% (w/v) hydroxy-β-cyclodextrin vehicle, dose normalized to 10 mg/kg of the corresponding carboxylic acid. Additional male cannulated rats (N=3) were dosed orally with the parent carboxylic acid, suspended in 45% (w/v) hydroxy-β-cyclodextrin vehicle, at 10 mg/kg. Animals were sacrificed at pre-determined time points (e.g., 0.5, 2 and/or 6 hours post administration) with an N=3 at each time point. At sacrifice, trunk blood was collected into tubes containing potassium EDTA, which were then centrifuged to permit isolation of plasma. The cerebellum was dissected from each animal. Plasma and cerebellum samples were stored at −80° C. until samples were analyzed using a SCIEX API2000 or SCIEX API5000 LC/MS/MS. Samples were analyzed for the amount of corresponding parent acid, D-serine, and/or the amount of test compound.
Conversion of test compounds to 4H-furo[3,2-b]pyrrole-5-carboxylic acid (“acid”; 77) in rats was evaluated according to General Procedure 12. 4H-furo[3,2-b]pyrrole-5-carboxylic acid and D-serine levels in plasma and cerebellum were measured. Animals were sacrificed at 6 hours post administration. In Table 6, “[D-serine] cerebellum” refers to D-serine levels, in nmol/g, in the rat cerebellum. In Table 6, “[acid] cerebellum” refers to the concentration, in μM, of the 4H-furo[3,2-b]pyrrole-5-carboxylic acid in the cerebellum. In Table 6, “[acid] plasma” refers to the concentration, in μM, of the 4H-furo[3,2-b]pyrrole-5-carboxylic acid in the plasma. The row labeled “acid”, denotes the data obtained from dosing 4H-furo[3,2-b]pyrrole-5-carboxylic acid. The row labeled “vehicle” denotes the data obtained from dosing vehicle, and the remaining row in the table denote the data obtained from dosing the test compounds.
Take `CC(=O)OC(OC(=O)c1cc2occc2[nH]1)C(C)C` (centres unmarked) [compound 40, 1-acetoxy-2-methylpropyl 4H-furo[3,2-b]pyrrole-5-carboxylate]: the “[D-serine] cerebellum” value is given as 22 ± 2.7(3) nmol/g.
The result for `CC(=O)OCn1c(C(=O)O)cc2occc21` [compound 66, 4-(acetoxymethyl)-4H-furo[3,2-b]pyrrole-5-carboxylic acid] reads 12 ± 0.7(3) nmol/g.
In the case of `CC(C)OC(=O)OC(C)OC(=O)c1cc2occc2[nH]1` (centres unmarked) [compound 36, 1-(isopropoxycarbonyloxy)ethyl 4H-furo[3,2-b]pyrrole-5-carboxylate], the “[D-serine] cerebellum” value was 20 ± 2.9(6) nmol/g.
Turning to `CCOC(=O)c1cc2occc2n1COCCOC(=O)C(N)C(C)C` (stereo in doubt) [compound 68, (S)-ethyl 4-((2-(2-amino-3-methylbutanoyloxy)ethoxy)methyl)-4H-furo[3,2-b]pyrrole-5-carboxylate], the “[D-serine] cerebellum” value was 5 ± 0.4(3) nmol/g.
Turning to `O=C(OCOC(=O)c1cc2occc2[nH]1)c1cc2occc2[nH]1` [compound 41, methylene bis(4H-furo[3,2-b]pyrrole-5-carboxylate)], the “[D-serine] cerebellum” value is 14 ± 0.2(3) nmol/g.
Regarding `CC(C)CCCOC(=O)c1cc2occc2[nH]1` [compound 8, 4-methylpentyl 4H-furo[3,2-b]pyrrole-5-carboxylate], the “[D-serine] cerebellum” value was 20 ± 1.5(3) nmol/g.
Then `CCCC(=O)OC(C)OC(=O)c1cc2occc2[nH]1` (centres unmarked) [compound 44, 1-(butyryloxy)ethyl 4H-furo[3,2-b]pyrrole-5-carboxylate], with 21 ± 1.3(3) nmol/g; and `CCCCOC(=O)c1cc2occc2[nH]1` [compound 5, butyl 4H-furo[3,2-b]pyrrole-5-carboxylate], with 18 ± 1.2(3) nmol/g; and `O=C(OCn1c(C(=O)O)cc2occc21)c1ccccc1` [compound 60, 4-(benzoyloxymethyl)-4H-furo[3,2-b]pyrrole-5-carboxylic acid], with 13 ± 1.1(3) nmol/g.
For the compound `CC(C)COC(=O)c1cc2occc2[nH]1` [compound 7, isobutyl 4H-furo[3,2-b]pyrrole-5-carboxylate], the “[D-serine] cerebellum” value was 19 ± 1.5(3) nmol/g.
In the case of `CCC(=O)OCOC(=O)c1cc2occc2[nH]1` [compound 42, propionyloxymethyl 4H-furo[3,2-b]pyrrole-5-carboxylate], the “[D-serine] cerebellum” value is reported as 20 ± 1.5(3) nmol/g.
Consider `CCOC(=O)c1cc2occc2n1COC(C)=O` [compound 64, ethyl 4-(acetoxymethyl)-4H-furo[3,2-b]pyrrole-5-carboxylate], for which the “[D-serine] cerebellum” value was 14 ± 3.6(3) nmol/g.
For `O=C(OCCn1ccnc1)c1cc2occc2[nH]1` [compound 27, 2-(1H-imidazol-1-yl)ethyl 4H-furo[3,2-b]pyrrole-5-carboxylate], the “[D-serine] cerebellum” value is recorded as 17 ± 0.6(3) nmol/g.
Then `CCCCCCCOC(=O)c1cc2occc2[nH]1` [compound 6, heptyl 4H-furo[3,2-b]pyrrole-5-carboxylate], with 18 ± 0.7(3) nmol/g; and `O=C(OCc1ccccc1)c1cc2occc2[nH]1` [compound 9, benzyl 4H-furo[3,2-b]pyrrole-5-carboxylate], with 21 ± 0.4(3) nmol/g; and `CC1(C)OC(=O)c2cc3occc3n21` [compound 2, 11,11-dimethyl-5,10-dioxa-1-azatricyclo[6.3.0.0^2,6]undeca-2(6),3,7-trien-9-one], with 17 ± 1.0(3) nmol/g.
The result for `CCCOC(=O)c1cc2occc2[nH]1` [compound 4, propyl 4H-furo[3,2-b]pyrrole-5-carboxylate] reads 20 ± 1.3(3) nmol/g.
Consider `CN(C)CCOC(=O)c1cc2occc2[nH]1` [compound 32, 2-(dimethylamino)ethyl 4H-furo[3,2-b]pyrrole-5-carboxylate], for which the “[D-serine] cerebellum” value is recorded as 9 ± 0.7(3) nmol/g.
As for `CCN(CC)C(=O)COC(=O)c1cc2occc2[nH]1` [compound 23, 2-(diethylamino)-2-oxoethyl 4H-furo[3,2-b]pyrrole-5-carboxylate], the “[D-serine] cerebellum” value is given as 18 ± 2.3(3) nmol/g.
Take `CC(OC(=O)OC(C)(C)C)OC(=O)c1cc2occc2[nH]1` (centres unmarked) [compound 37, 1-(tert-butoxycarbonyloxy)ethyl 4H-furo[3,2-b]pyrrole-5-carboxylate]: the “[D-serine] cerebellum” value is on record as 18 ± 1.1(3) nmol/g.
Consider `CCOC(=O)c1cc2occc2n1COC(=O)c1ccccc1` [compound 59, ethyl 4-(benzoyloxymethyl)-4H-furo[3,2-b]pyrrole-5-carboxylate], for which the “[D-serine] cerebellum” value is recorded as 11 ± 1.9(3) nmol/g.
In the case of `CC(C)C(=O)OCOC(=O)c1cc2occc2[nH]1` [compound 47, isobutyryloxymethyl 4H-furo[3,2-b]pyrrole-5-carboxylate], the “[D-serine] cerebellum” value was 22 ± 3.0(3) nmol/g.
Turning to `CCC(=O)OC(C)OC(=O)c1cc2occc2[nH]1` (centres unmarked) [compound 34, 1-(propionyloxy)ethyl 4H-furo[3,2-b]pyrrole-5-carboxylate], the “[D-serine] cerebellum” value was 20 ± 1.7(3) nmol/g.
Turning to `NC(=O)CNC(=O)c1cc2occc2[nH]1` [compound 57, N-(2-amino-2-oxoethyl)-4H-furo[3,2-b]pyrrole-5-carboxamide], the “[D-serine] cerebellum” value is 5 ± 0.5(3) nmol/g.
The result for `CCC(OC(C)=O)OC(=O)c1cc2occc2[nH]1` (centres unmarked) [compound 45, 1-acetoxypropyl 4H-furo[3,2-b]pyrrole-5-carboxylate] reads 22 ± 1.9(3) nmol/g; that for `O=C(OCCl)c1cc2occc2[nH]1` [compound 76, chloromethyl 4H-furo[3,2-b]pyrrole-5-carboxylate], 12 ± 1.5(3) nmol/g.
The result for `CC(=O)OCOC(=O)c1cc2occc2[nH]1` [compound 38, acetoxymethyl 4H-furo[3,2-b]pyrrole-5-carboxylate] reads 19 ± 4.4(4) nmol/g; that for `O=C(OCCOC(=O)c1cc2occc2[nH]1)c1cc2occc2[nH]1` [compound 55, ethane-1,2-diyl bis(4H-furo[3,2-b]pyrrole-5-carboxylate)], 13 ± 1.1(3) nmol/g; that for `CC(=O)OC(C)OC(=O)c1cc2occc2[nH]1` (centres unmarked) [compound 33, 1-acetoxyethyl 4H-furo[3,2-b]pyrrole-5-carboxylate], 19 ± 1.4(3) nmol/g.
For `CC(C)C(=O)OCn1c(C(=O)O)cc2occc21` [compound 67, 4-(isobutyryloxymethyl)-4H-furo[3,2-b]pyrrole-5-carboxylic acid], the “[D-serine] cerebellum” value is 14 ± 0.9(3) nmol/g.
`O=C1OCC(OC(=O)c2cc3occc3[nH]2)O1` (centres unmarked) [compound 73, 2-oxo-1,3-dioxolan-4-yl 4H-furo[3,2-b]pyrrole-5-carboxylate]: the “[D-serine] cerebellum” value is listed as 24 ± 2.0(2) nmol/g.
In the case of `CC1OC(=O)c2cc3occc3n21` (centres unmarked) [compound 3, 11-methyl-5,10-dioxa-1-azatricyclo[6.3.0.0^2,6]undeca-2(6),3,7-trien-9-one], the “[D-serine] cerebellum” value was 17 ± 1.0(3) nmol/g.
Take `NC(=O)c1cc2occc2[nH]1` [compound 56, 4H-furo[3,2-b]pyrrole-5-carboxamide]: the “[D-serine] cerebellum” value is reported as 7 ± 0.7(2) nmol/g.
Take `O=C(OC1OC(=O)c2ccccc21)c1cc2occc2[nH]1` (centres unmarked) [compound 74, 3-oxo-1,3-dihydroisobenzofuran-1-yl 4H-furo[3,2-b]pyrrole-5-carboxylate]: the “[D-serine] cerebellum” value is 13 ± 1.2(3) nmol/g.
The result for `CC(=O)OCOC(=O)c1cc2occc2n1COC(C)=O` [compound 71, acetoxymethyl 4-(acetoxymethyl)-4H-furo[3,2-b]pyrrole-5-carboxylate] reads 14 ± 0.9(3) nmol/g; that for `CN1CCN(C(=O)c2cc3occc3[nH]2)CC1` [compound 58, (4H-furo[3,2-b]pyrrol-5-yl)(4-methylpiperazin-1-yl)methanone], 5 ± 0.3(3) nmol/g; that for `O=C(OCn1ccnc1)c1cc2occc2[nH]1` [compound 28, (1H-imidazol-1-yl)methyl 4H-furo[3,2-b]pyrrole-5-carboxylate], 19 ± 1.9(3) nmol/g.
`CCOC(=O)c1cc2occc2n1COC(=O)C(C)C` [compound 65, ethyl 4-(isobutyryloxymethyl)-4H-furo[3,2-b]pyrrole-5-carboxylate]: the “[D-serine] cerebellum” value is reported as 11 ± 2.6(3) nmol/g.
